Measurements from ChEMBL document CHEMBL1201862, “PubChem BioAssay data set” (2004).
Activity calls are given as the source filed them.

Tests used:
[1] = viability of HCT116 lacking mutant beta-catenin – cell-based, human colon tumor, dose response (AID 1045); type: functional;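 further: HCT116 colon tumor cells with beta catenin knocked out; cells exposed to compound for 60 hours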
[2] = luciferase reporter signal suppression in cells – H4 neuroglioma cells, luminescence, dose response (AID 1990); type: functional, cell-based
[3] = Luminescence Cell-Based Dose Response HTS to Identify Inhibitors of 5'UTR Stem-Loop Driven Prion Protein mRNA Translation in H4 Neuroglioblastoma Cells. [Related pubchem assays: 1827 (Project Summary), 1813 (Primary HTS)]; type: functional
[4] = viability of PTEN-deleted HCT116 cells – cell-based, HCT116 PTEN knockout, dose response (AID 1047); type: functional;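 further: HCT116 colon tumor cells with PTEN knocked out; cells exposed to compound for 60 hours before readout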
[5] = target: T1, G-protein coupled receptor 55 (Homo sapiens, UniProt Q9Y2T6); assay: inhibition of LPI-stimulated GPR55 beta-arrestin translocation – imaging, U2OS, beta-arrestin-GFP, LPI agonist, primary screen (AID 2013); type: functional;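 further: antagonist potency measured as reduced agonist-driven arrestin aggregation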
T1 sequence (Q9Y2T6 whole entry): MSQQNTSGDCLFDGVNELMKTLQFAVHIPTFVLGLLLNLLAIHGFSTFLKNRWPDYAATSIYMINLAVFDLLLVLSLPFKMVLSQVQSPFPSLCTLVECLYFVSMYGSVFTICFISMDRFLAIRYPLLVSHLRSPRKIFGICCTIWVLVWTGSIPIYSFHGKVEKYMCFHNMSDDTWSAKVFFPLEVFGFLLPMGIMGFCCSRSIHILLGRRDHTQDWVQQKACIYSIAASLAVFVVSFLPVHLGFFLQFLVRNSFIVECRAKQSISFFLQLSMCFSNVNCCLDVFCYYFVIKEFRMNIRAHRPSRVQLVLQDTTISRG

[6] = alpha-synuclein stem-loop luciferase translation blockers – H4 neuroglioma cells, luminescence, confirmation (AID 1988); type: functional, cell-based
[7] = target: Phosphoethanolamine/phosphocholine phosphatase (Homo sapiens, UniProt Q8TCT1); assay: SAR assay for compounds that inhibit PHOSPHO1. [Related pubchem assays (depositor defined):AID1545, AID1565, AID1574]
Chain of Phosphoethanolamine/phosphocholine phosphatase (Q8TCT1 whole entry): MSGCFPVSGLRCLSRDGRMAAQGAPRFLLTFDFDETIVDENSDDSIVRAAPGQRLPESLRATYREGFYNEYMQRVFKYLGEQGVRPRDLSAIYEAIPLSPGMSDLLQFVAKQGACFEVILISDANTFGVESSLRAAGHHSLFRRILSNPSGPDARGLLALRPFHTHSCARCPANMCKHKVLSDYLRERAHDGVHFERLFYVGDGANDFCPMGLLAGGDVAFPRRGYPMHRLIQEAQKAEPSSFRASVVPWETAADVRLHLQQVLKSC

Hexokinase = target: T2, Hexokinase (Trypanosoma brucei, UniProt Q38C41); assay: Confirmation assay for inhibitors of Trypanosoma brucei hexokinase 1-Analogue-first series. [Related pubchem assays (depositor defined):AID1430, AID1632, AID2516, AID2560, AID2579, AID2600, AID449725, AID492951]; type: functional
T2 sequence (Q38C41 whole entry): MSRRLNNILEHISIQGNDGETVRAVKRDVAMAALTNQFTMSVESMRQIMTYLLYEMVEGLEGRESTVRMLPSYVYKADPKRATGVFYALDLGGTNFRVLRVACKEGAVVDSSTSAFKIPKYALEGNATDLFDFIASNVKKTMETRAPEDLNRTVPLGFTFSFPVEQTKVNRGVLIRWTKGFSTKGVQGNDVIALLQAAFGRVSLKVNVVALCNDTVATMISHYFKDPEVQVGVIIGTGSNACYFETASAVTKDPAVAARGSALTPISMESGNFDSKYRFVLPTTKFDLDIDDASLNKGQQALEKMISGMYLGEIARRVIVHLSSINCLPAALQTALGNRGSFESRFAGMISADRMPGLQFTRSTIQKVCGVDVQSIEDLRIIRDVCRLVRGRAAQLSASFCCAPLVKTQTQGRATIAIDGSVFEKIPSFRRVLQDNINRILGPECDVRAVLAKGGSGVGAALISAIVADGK

Phosphomannomutase 2 = target: T3, Phosphomannomutase 2 (Homo sapiens, UniProt O15305); assay: Counter screen SAR assay for PMM2 inhibitors via a fluorescence intensity assay. [Related pubchem assays (depositor defined):AID1545, AID1574]
T3 sequence (O15305 whole entry): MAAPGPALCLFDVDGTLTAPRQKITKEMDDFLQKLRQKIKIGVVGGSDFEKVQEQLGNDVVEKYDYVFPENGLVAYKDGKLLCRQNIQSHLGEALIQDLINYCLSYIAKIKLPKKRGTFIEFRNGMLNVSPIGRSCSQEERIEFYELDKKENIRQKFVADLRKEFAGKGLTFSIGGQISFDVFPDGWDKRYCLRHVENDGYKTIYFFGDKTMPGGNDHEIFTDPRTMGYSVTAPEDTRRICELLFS

[8] = target: T4, Alkaline phosphatase, tissue-nonspecific isozyme (Homo sapiens, UniProt P05186); assay: potency against alkaline phosphatase TNAP – biochemical, luminescent, dose response, SAR follow-up (AID 1056)
T4 sequence (P05186 whole entry): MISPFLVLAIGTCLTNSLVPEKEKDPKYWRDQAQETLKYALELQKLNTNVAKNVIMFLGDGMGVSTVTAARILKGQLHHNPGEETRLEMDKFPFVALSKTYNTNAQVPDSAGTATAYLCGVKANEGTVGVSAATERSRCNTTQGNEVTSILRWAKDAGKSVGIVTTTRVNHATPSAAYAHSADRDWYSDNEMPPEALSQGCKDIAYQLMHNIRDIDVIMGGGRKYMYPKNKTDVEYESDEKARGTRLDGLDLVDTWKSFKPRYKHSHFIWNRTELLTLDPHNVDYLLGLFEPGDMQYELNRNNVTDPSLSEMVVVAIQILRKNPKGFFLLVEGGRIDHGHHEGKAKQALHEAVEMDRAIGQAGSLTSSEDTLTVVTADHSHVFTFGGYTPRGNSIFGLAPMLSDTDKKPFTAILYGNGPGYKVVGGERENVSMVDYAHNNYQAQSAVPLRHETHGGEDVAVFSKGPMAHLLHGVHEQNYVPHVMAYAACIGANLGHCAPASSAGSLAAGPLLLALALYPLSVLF

[9] = target: DNA dC->dU-editing enzyme APOBEC-3G (Homo sapiens, UniProt Q9HC16); assay: Dose Response confirmation of small molecule APOBEC3G DNA Deaminase Inhibitors via a fluorescence-based single-stranded DNA deaminase assay. [Related pubchem assays (depositor defined):AID493012, AID493028]; type: functional
Chain of DNA dC->dU-editing enzyme APOBEC-3G (Q9HC16 whole entry): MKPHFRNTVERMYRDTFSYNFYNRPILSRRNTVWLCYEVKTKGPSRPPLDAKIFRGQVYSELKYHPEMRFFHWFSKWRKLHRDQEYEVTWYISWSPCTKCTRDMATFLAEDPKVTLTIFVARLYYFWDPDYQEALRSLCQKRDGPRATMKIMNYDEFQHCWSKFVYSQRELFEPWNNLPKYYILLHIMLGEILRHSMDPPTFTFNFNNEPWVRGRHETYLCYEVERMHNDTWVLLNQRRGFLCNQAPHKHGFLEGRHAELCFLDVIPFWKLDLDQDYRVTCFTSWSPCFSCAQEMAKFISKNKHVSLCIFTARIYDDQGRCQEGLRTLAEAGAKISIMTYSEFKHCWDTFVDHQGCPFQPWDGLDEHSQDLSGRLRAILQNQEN

[10] = target: DNA dC->dU-editing enzyme APOBEC-3A (Homo sapiens, UniProt P31941); assay: A3A deaminase inhibition for selectivity – biochemical, dose response (AID 504722); type: functional
Chain of DNA dC->dU-editing enzyme APOBEC-3A (P31941 whole entry): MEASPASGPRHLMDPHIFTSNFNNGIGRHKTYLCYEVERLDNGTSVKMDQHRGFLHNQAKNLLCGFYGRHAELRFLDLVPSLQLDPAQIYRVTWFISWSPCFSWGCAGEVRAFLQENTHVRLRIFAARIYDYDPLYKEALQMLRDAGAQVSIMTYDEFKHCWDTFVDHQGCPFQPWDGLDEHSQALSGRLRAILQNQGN

[11] = viability loss in HeLa cells – cytotoxicity control for MgcRacGAP inhibitor project, dose response (AID 624300); type: functional
Beta Lactamase [12] = target: T5, Beta Lactamase (Pseudomonas aeruginosa, UniProt Q932Y6); assay: BLA reporter interference, concentration series – BLA reporter cells, FRET fluorescence, artefact control for NOD2-RIPK2 interaction inhibitor project, dose response (AID 651552); type: functional, cell-based
T5 sequence (Q932Y6 whole entry): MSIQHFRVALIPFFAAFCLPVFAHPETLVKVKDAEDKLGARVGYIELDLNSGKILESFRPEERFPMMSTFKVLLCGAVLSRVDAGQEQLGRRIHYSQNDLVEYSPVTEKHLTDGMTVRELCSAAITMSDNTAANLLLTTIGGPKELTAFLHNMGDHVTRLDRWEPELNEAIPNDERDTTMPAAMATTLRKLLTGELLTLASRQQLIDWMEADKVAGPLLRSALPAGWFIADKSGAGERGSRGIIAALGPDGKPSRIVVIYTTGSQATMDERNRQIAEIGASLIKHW

[13] = target: T6, Rac GTPase-activating protein 1 (Homo sapiens, UniProt Q9H0H5); assay: blockers of MgcRacGAP-driven Rac1 GTP hydrolysis – biochemical, ADP Hunter fluorescence, primary and confirmatory, confirmation (AID 624330); type: functional
T6 sequence (Q9H0H5 whole entry): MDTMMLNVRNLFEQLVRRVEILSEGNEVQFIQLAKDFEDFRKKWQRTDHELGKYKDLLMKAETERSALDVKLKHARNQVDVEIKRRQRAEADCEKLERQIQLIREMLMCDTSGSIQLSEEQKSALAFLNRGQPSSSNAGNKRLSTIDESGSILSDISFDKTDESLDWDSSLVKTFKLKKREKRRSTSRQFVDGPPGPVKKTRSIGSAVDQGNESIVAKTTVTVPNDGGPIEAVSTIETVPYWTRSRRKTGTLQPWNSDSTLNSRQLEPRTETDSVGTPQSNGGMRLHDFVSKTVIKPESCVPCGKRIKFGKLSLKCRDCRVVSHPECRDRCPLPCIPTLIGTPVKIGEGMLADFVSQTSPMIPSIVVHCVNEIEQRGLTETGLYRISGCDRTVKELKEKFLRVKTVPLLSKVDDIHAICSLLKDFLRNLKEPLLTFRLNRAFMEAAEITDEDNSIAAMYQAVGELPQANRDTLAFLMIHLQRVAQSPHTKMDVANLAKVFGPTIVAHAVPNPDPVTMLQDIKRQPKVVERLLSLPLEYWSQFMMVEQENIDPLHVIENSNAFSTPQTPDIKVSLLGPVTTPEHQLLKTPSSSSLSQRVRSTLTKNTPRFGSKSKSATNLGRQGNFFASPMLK

Beta Lactamase [14] = target: T5, Beta Lactamase; assay: BLA reporter interference, concentration series – BLA reporter cells, FRET fluorescence, artefact control for TLR9-MyD88 binding inhibitor project, dose response (AID 588341); type: cell-based;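 further: cell based assay in CHO-K1 cells stably expressing beta-lactamase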
[15] = Fluorescence-based cell-based high throughput dose response assay for inhibitors of the interaction of nucleotide-binding oligomerization domain containing 2 (NOD2) and the receptor-interacting serine-threonine kinase 2 (RIPK2).; type: functional; conditions: Homo sapiens
CHO = CHO cell viability loss, potency – luminescence, cytotoxicity control for TLR9-MyD88 binding inhibitor project, dose response (AID 588339); type: functional, cell-based, hamster; conditions: Cricetulus griseus;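 further: CHO cells stably coexpressing TLR9 and MyD88 fusions from primary screen; compound exposure lasted 48 hours before viability readout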
[16] = target: Mitochondrial peptide methionine sulfoxide reductase (Bos taurus, UniProt P54149); assay: Absorbance-based biochemical high throughput dose response assay for activators of Methionine sulfoxide reductase A (MsrA).; type: functional
Chain of Mitochondrial peptide methionine sulfoxide reductase (P54149 whole entry, the tested form may be a part): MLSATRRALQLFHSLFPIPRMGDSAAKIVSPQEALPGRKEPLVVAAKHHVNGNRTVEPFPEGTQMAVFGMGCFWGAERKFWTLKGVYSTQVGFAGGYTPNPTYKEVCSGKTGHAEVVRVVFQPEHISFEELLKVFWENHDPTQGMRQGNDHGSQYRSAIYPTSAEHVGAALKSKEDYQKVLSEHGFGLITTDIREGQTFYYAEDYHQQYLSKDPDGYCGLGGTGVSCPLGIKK

[17] = target: NACHT, LRR and PYD domains-containing protein 1 (Homo sapiens, UniProt Q9C000); assay: NALP1 inhibitors in yeast, dose response, luminescent (AID 488860); type: functional
Chain of NACHT, LRR and PYD domains-containing protein 1 (Q9C000 1-1212 limits assumed): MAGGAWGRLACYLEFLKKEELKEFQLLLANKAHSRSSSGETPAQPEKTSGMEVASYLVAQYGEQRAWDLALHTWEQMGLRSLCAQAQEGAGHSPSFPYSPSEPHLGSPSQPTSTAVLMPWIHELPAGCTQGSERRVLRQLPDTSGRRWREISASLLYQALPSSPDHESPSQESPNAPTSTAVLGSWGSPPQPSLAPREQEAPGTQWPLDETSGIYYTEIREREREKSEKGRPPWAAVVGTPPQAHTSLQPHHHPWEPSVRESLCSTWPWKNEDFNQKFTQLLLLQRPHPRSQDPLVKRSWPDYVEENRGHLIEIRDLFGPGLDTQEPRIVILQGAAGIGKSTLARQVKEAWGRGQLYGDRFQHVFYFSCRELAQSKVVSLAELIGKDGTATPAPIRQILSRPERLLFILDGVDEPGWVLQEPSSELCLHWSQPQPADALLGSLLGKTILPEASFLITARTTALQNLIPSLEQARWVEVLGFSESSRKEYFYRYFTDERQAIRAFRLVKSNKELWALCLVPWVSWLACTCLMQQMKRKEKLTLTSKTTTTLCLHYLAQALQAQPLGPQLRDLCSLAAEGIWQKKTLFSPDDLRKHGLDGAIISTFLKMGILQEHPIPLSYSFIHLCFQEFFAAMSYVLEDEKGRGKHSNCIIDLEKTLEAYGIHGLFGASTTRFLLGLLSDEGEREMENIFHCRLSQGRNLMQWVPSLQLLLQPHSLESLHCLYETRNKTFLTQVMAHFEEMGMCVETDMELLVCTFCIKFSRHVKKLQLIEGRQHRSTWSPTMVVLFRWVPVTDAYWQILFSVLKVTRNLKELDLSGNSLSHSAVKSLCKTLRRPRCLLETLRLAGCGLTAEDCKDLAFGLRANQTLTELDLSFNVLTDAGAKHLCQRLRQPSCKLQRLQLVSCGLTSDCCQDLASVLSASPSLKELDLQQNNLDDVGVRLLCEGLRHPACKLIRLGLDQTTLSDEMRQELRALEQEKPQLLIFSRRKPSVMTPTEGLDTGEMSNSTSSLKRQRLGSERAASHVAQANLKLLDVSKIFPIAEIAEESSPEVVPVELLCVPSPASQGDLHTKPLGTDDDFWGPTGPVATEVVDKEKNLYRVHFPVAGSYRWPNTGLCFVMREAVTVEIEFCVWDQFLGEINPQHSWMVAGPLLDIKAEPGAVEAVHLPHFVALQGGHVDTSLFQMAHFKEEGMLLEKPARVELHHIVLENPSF
Chain of NACHT, LRR and PYD domains-containing protein 1 (Q9C000 1213-1473 limits assumed): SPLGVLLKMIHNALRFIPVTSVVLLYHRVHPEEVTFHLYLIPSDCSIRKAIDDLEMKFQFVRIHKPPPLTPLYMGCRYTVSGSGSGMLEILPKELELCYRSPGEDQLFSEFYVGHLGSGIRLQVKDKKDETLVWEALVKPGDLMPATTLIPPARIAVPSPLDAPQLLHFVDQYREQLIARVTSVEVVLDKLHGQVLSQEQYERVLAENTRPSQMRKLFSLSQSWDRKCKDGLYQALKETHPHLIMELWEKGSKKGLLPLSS

Saccharomyces cerevisiae = assay: S. cerevisiae Caspase-1/ASC signal blockers IC50, NALP1 inhibitor project selectivity test (AID 488863); type: functional, organism-based
[18] = target: T1, G-protein coupled receptor 55; assay: selective activators of receptor GPR55 – imaging, U2OS cells, beta-arrestin-GFP redistribution, primary screen (AID 1961); type: functional

CCCCNS(=O)(=O)c1ccc(NC(=O)C(Sc2ccccc2)c2ccccc2)cc1 (configuration not stated)
EC50 [1]: 12.2 µM (active)
EC50 [2]: > 120 µM (not active)
EC50 [3]: > 120 µM (not active)
EC50 [4]: 14 µM (active)
IC50 [5]: 1.12 µM (active)
EC50 [6]: 13.9 µM (active)

O=c1c2cc(F)ccc2sn1-c1ccccc1
IC50 [7]: 0.792 µM (active)
IC50 (Hexokinase): 1.03 µM (active)
IC50 (Phosphomannomutase 2): 88.3 µM (active)
IC50 [8]: > 100 µM (inactive)
IC50 [9]: 8.82 µM (active)
IC50 [10]: > 100 µM (inactive)
CC50 [11]: 100 µM (active)
IC50 (Beta Lactamase [12]): 23.7 µM (inactive)
IC50 [13]: 35.5 µM (active)
IC50 (Beta Lactamase [14]): 23 µM (inactive)
IC50 [15]: 4.59 µM (active)
IC50 (CHO): 5.8 µM (active)
EC50 [16]: > 104 µM (inactive)

COC(=O)c1sccc1NC(=O)c1csc(C)c1
IC50 [17]: 15.9 µM (active)
IC50 (Saccharomyces cerevisiae): 60.4 µM (active)

O=C(O)c1cccc(CSc2nnc(-c3ccc(Cl)cc3Cl)[nH]2)c1
EC50 [18]: 6.41 µM (active)
